Laboratory results: patent US6337417B1, “N-phenyltetrahydrophthalamic acid derivatives, methods of producing same, and herbicides containing same as effective components” (Central Glass Co., Ltd., priority 1994, dated 2002)

Tests used:
[1] = tested on: noasagao (blue morningglory, Ipomoea indica); assay: Experiment 9 foliage treatment: noasagao; type: in vivo; parameters: key: 5: completely killed; 4: seriously injured; 3: considerably injured; 2: somewhat injured; 1: slightly injured; 0: not injured (normally grown); conditions: foliage spray of wettable powder suspension, evaluated 4 weeks after treatment
Protocol: (§1) Upon seedling stage (two- or three-leaved stage) of ichibi (velvetleaf, Abutilon theophrasti), onamomi (heartleaf cocklebur, Xanthium strumarium) (4L stage), noasagao (blue morningglory, Ipomoea indica) and ooinutade (pale smartweed, Persicaria lapathifolia) which were grown on a cultivated soil put in pots of 1/8850 ares, a selected compound obtained in a manner analogous to Example 14, in suspended wettable powder, was sprayed to each plant. After that, the pots were kept in a glass chamber to allow each plant to grow, and after the lapse of 4 weeks from the treatment with the selected compounds the herbicidal effects were evaluated. The evaluation of the herbicidal effects was similarly conducted as that of Experiment 1.

[2] = tested on: onamomi (heartleaf cocklebur, Xanthium strumarium); assay: Experiment 3 foliage treatment: onamomi; type: in vivo; parameters: key: 5: completely killed; 4: seriously injured; 3: considerably injured; 2: somewhat injured; 1: slightly injured; 0: not injured (normally grown); conditions: 4 weeks after treatment
Protocol: as §1, with “to Example 8, in suspended” for “to Example 14, in suspended”, “conducted as to that of” for “conducted as that of”

[3] = tested on: ichibi (velvetleaf, Abutilon theophrasti); assay: Experiment 9 foliage treatment: ichibi; type: in vivo; parameters: key: 5: completely killed; 4: seriously injured; 3: considerably injured; 2: somewhat injured; 1: slightly injured; 0: not injured (normally grown); conditions: foliage spray of wettable powder suspension, evaluated 4 weeks after treatment
Protocol: as §1

[4] = tested on: onamomi (heartleaf cocklebur, Xanthium strumarium); assay: Experiment 6 foliage treatment: onamomi; type: in vivo; parameters: key: 5: completely killed; 4: seriously injured; 3: considerably injured; 2: somewhat injured; 1: slightly injured; 0: not injured (normally grown); conditions: foliage spray of wettable powder suspension, evaluated 4 weeks after treatment
Protocol: as §1, with “(4 L” for “(4L”, “11,” for “14,”

[5] = tested on: ichibi (velvetleaf, Abutilon theophrasti); assay: Experiment 3 foliage treatment: ichibi; type: in vivo; parameters: key: 5: completely killed; 4: seriously injured; 3: considerably injured; 2: somewhat injured; 1: slightly injured; 0: not injured (normally grown); conditions: 4 weeks after treatment
Protocol: as §1, with “to Example 8, in suspended” for “to Example 14, in suspended”, “conducted as to that of” for “conducted as that of”

[6] = tested on: onamomi (heartleaf cocklebur, Xanthium strumarium); assay: Experiment 9 foliage treatment: onamomi; type: in vivo; parameters: key: 5: completely killed; 4: seriously injured; 3: considerably injured; 2: somewhat injured; 1: slightly injured; 0: not injured (normally grown); conditions: foliage spray of wettable powder suspension, evaluated 4 weeks after treatment
Protocol: as §1

[7] = tested on: noasagao (blue morningglory, Ipomoea indica); assay: Experiment 3 foliage treatment: noasagao; type: in vivo; parameters: key: 5: completely killed; 4: seriously injured; 3: considerably injured; 2: somewhat injured; 1: slightly injured; 0: not injured (normally grown); conditions: 4 weeks after treatment
Protocol: as §1, with “to Example 8, in suspended” for “to Example 14, in suspended”, “conducted as to that of” for “conducted as that of”

[8] = tested on: ooinutade (pale smartweed, Persicaria lapathifolia); assay: Experiment 9 foliage treatment: ooinutade; type: in vivo; parameters: key: 5: completely killed; 4: seriously injured; 3: considerably injured; 2: somewhat injured; 1: slightly injured; 0: not injured (normally grown); conditions: foliage spray of wettable powder suspension, evaluated 4 weeks after treatment
Protocol: as §1

[9] = tested on: ooinutade (pale smartweed, Persicaria lapathifolia); assay: Experiment 6 foliage treatment: ooinutade; type: in vivo; parameters: key: 5: completely killed; 4: seriously injured; 3: considerably injured; 2: somewhat injured; 1: slightly injured; 0: not injured (normally grown); conditions: foliage spray of wettable powder suspension, evaluated 4 weeks after treatment
Protocol: as §1, with “(4 L” for “(4L”, “11,” for “14,”

[10] = tested on: noasagao (blue morningglory, Ipomoea indica); assay: Experiment 6 foliage treatment: noasagao; type: in vivo; parameters: key: 5: completely killed; 4: seriously injured; 3: considerably injured; 2: somewhat injured; 1: slightly injured; 0: not injured (normally grown); conditions: foliage spray of wettable powder suspension, evaluated 4 weeks after treatment
Protocol: as §1, with “(4 L” for “(4L”, “11,” for “14,”

[11] = tested on: ichibi (velvetleaf, Abutilon theophrasti); assay: Experiment 6 foliage treatment: ichibi; type: in vivo; parameters: key: 5: completely killed; 4: seriously injured; 3: considerably injured; 2: somewhat injured; 1: slightly injured; 0: not injured (normally grown); conditions: foliage spray of wettable powder suspension, evaluated 4 weeks after treatment
Protocol: as §1, with “(4 L” for “(4L”, “11,” for “14,”

[12] = tested on: ooinutade (pale smartweed, Persicaria lapathifolia); assay: Experiment 3 foliage treatment: ooinutade; type: in vivo; parameters: key: 5: completely killed; 4: seriously injured; 3: considerably injured; 2: somewhat injured; 1: slightly injured; 0: not injured (normally grown); conditions: 4 weeks after treatment
Protocol: as §1, with “to Example 8, in suspended” for “to Example 14, in suspended”, “conducted as to that of” for “conducted as that of”

Structure (SMILES): CCc1cnc(C2=NC(C)(C(C)C)C(=O)N2)c(C(=O)O)c1 (stereo not shown) [Comparative agentC, Pursuit, reference compound]
- Herbicidal Effet noasagao ([1]; 4 g/10a): 3
- Herbicidal Effet noasagao ([1]; 8 g/10a): 4
- Herbicidal Effect onamomi ([2]; 4 g/10a): 4
- Herbicidal Effect onamomi ([2]; 8 g/10a): 5
- Herbicidal Effet ichibi ([3]; 4 g/10a): 3
- Herbicidal Effet ichibi ([3]; 8 g/10a): 3
- Herbicidal Effect onamomi ([4]; 4 g/10a): 4
- Herbicidal Effect onamomi ([4]; 8 g/10a): 5
- Herbicidal Effect ichibi ([5]; 4 g/10a): 3
- Herbicidal Effect ichibi ([5]; 8 g/10a): 3
- Herbicidal Effet onamomi ([6]; 4 g/10a): 4
- Herbicidal Effet onamomi ([6]; 8 g/10a): 5
- Herbicidal Effect noasagao ([7]; 4 g/10a): 3
- Herbicidal Effect noasagao ([7]; 8 g/10a): 4
- Herbicidal Effet ooinutade ([8]; 4 g/10a): 5
- Herbicidal Effet ooinutade ([8]; 8 g/10a): 5
- Herbicidal Effect ooinutade ([9]; 4 g/10a): 5
- Herbicidal Effect ooinutade ([9]; 8 g/10a): 5
- Herbicidal Effect noasagao ([10]; 4 g/10a): 3
- Herbicidal Effect noasagao ([10]; 8 g/10a): 4
- Herbicidal Effect ichibi ([11]; 4 g/10a): 3
- Herbicidal Effect ichibi ([11]; 8 g/10a): 3
- Herbicidal Effect ooinutade ([12]; 4 g/10a): 5
- Herbicidal Effect ooinutade ([12]; 8 g/10a): 5

Structure (SMILES): COC(=O)Cc1sc(F)c(N(C(C)=O)C(=O)C2=C(C(=O)OC)CCCC2)c1Cl [compound 11, N-acetyl-N-(4-chloro-2-fluoro-5-methoxycarbonylmethylthiophenyl)-3,4,5,6-tetrahydrophthalamic acid methyl ester]
- melting point: 124 to 124.5 °C
